Assays:
[1] = test system: S. cerevisiae 9763; experiment: Chicken soup trial at 8° C.; format: cell-based, Saccharomyces cerevisiae; conditions: for Effect on growth: chicken soup at 8° C., TCSM010521, APP215
Excerpt: (§1) A local supermarket brand of cream of chicken soup was used as a model food system. 600 g packs were purchased from the local supermarket. This was a ‘fresh home-made type’ of soup that was stored in the chill cabinet, with a short shelf life. It was chosen because it is a rich, nutritious food system containing a range of food components including meat, dairy and vegetable.
(§2) Ingredients were labelled as: chicken stock (water, duck fat, chicken, salt, flavourings, yeast extracts, pork gelatine, glucose syrup, vegetable concentrate, milk protein, sugar, malto-dextrin, vegetable oil, citric acid, lactose, chicken fat), ilk, chicken (9%), cream (8%), onion, potato, vegetable oil, modified maize starch, wheat flour, lemon juice, salt, white pepper. pH 5.912. Protein: 3.3%; carbohydrate: 4.7%; fat: 7.2%; fibre: 0.2%; sodium: 0.1%
(§3) For the test the soup was mixed 2:1 in water (to facilitate sampling and mixing) and sterilised by autoclaving at 121° C. for 15 minutes. For each experiment the pH of the soup was recorded; this was between pH 5.79-5.88.
(§4) For TCS010521/8 (incubated at 8° C.), samples were prepared in 27.8 g quantities. 1.5 g of an APP stock solution was added, and the tests inoculated with 0.3 ml of a suitably diluted cell or spore suspension to give a final inoculum of ca. 10^3 cfu/g. APP was tested at 0, 500 and 1000 ppm, and batch number APP20010213 (at 169 mg/ml) was used. The tests were sampled by viable count and then incubated at 8° C. and tested on a twice-weekly basis.

[2] = test system: Salm Typhimurium S29; experiment: Test in cooked minced chicken slurry; format: cell-based, Salmonella Typhimurium; conditions: for Total inhibition for: minced chicken slurry at 8° C., pH 6.42, TCC010704
Description: 1 kg of minced chicken (mainly lean meat) was purchased from the local butcher. This was mixed with 1 litre of BHI, mixed and dispensed as 100 g samples prior to autoclaving. When still warm, the meat was re-mixed thoroughly. When cooked, the meat was inoculated with 1 ml of 10^5 spores or cells (from an overnight broth), and re-mixed. The samples were then divided into 3×25 g portions, to which 0.5 ml of filter-sterilised APP20010215 was added (as 5% or 10% stock solutions) or water. An initial viable count was taken, and the samples then incubated at 8° C. and tested twice weekly. The pH of the chicken slurry was 6.42.

[3] = test system: B. cereus; experiment: Test in milk; format: cell-based, Bacillus cereus; conditions: TMGB010605; for Control for: milk at 20° C.
Description: 8.9 ml samples of UHT milk containing 0.5% glucose and the indicator bromocresol purple (0.01%) were prepared and sterilised by autoclaving. The pH before APP addition was pH 6.65. Appropriate stock solutions of APP batch number APP20010215 (at 138 mg/ml) were prepared and filter sterilised. 1 ml of each was added to the milk to prepare tests containing 0, 1000 and 2000 ppm APP. Tests were then inoculated with 100 μl of diluted overnight broth cultures or spore suspensions to give a final inoculum level of ca. 10^3 cfu/ml. These and uninoculated tests were incubated at 20 and 8° C. and examined daily for visible changes compared to uninoculated control.

[4] = test system: Br. thermosphacta; experiment: Inoculated test in raw meat; format: cell-based, Brochothrix thermosphacta; conditions: Raw inoculated meat at 8° C. pH 5.3
Description: Fresh beef steak was purchased from the local butcher, and minced on clean machinery. The raw meat (ca. pH 6.2) was divided into 8×90 samples and inoculated-with 10^3 cfu/ml of test organisms. The meat was mixed thoroughly using a stomacher. 10 g of SDW or 2% APP (Batch number APP20010215) was added, and the meat was again thoroughly mixed. An initial viable count was taken, the meat was incubated at 8° C., and sampled on the following days using non-selective agar (MPCA) and selective agar: XLD for Salmonella; Oxford selective agar (Listeria monocytogenes); and STAA agar (Brochothrix thermosphacta). The pH of the raw meat was pH 5.3.

[5] = test system: Y. enterocolitica S16; experiment: Bioscreen growth inhibition test; format: cell-based, Yersinia enterocolitica; conditions: BS010510, 24 h/30, APP20010213
Description: For broth cultures and Bioscreen testing most bacteria were grown in Brain Heart Infusion (BHI, Oxoid, pH 7.4). Lactobacillus sake A10 was grown in de Man, Rogosa, Sharpe medium ([…], Oxoid). Yeasts were grown in Sabouraud Liquid medium (SLM, Oxoid). Most bacteria were cultured at 30° C. Lactic acid bacteria were grown on solid medium in enriched CO2 atmosphere. Clostridium species were grown in Reinforced Clostridial Medium (RCM) at 37° C. anaerobically. Brochothrix thermosphacta fungi and yeasts were grown at 25° C. Fungi were cultured on Malt Extract Agar (MEA, Oxoid).
An automated Microbiology Reader Bioscreen C was used to measure growth curves of the strains in the presence and absence of APP. The Bioscreen C measures the development of turbidity (i.e. growth) kinetically by vertical photometry in 200 wells of a honeycomb microtitre plate, simultaneously. The system consists of a Bioscreen C analyser, which is an incubator and measurement unit, integrated with a PC, software (BioLink v 5.30), printer and a ‘Honeycomb 2’ cuvette multiwell plate. Growth curve data can be analysed within the BioLink software or exported to programs such as Excel.
Broth culture media were dispensed in 270 μl volumes into the wells as directed. […] (depending on the micro-organism under investigation) with readings taken every 20 minutes after the trays were shaken. […]

[6] = test system: L monocytogenes S23; experiment: Chicken soup trial at 8° C.; format: cell-based, Listeria monocytogenes; conditions: chicken soup at 8° C., TCSM010521, APP215
Excerpt: as §1, §2, §3, §4

## O=C1CC(CO)OC=C1O (centres unmarked) [APP, Ascopyrone P]
[1]; 500 ppm
  Effect on growth: No effect with 500 and 1000 ppm
[1]; 1000 ppm
  Effect on growth: No effect with 500 and 1000 ppm
[1]; Chicken soup at 8° C. pH 5.8, (1000 ppm)
  No inhibition (effect on growth of target organism by APP): S. cerevisiae (1000
[2]; 1000 ppm
  Total inhibition for: Total inhibition by 1000 ppm for 25 d
[2]; 2000 ppm
  Total inhibition for: Total inhibition by 2000 ppm for >40 d
[2]; Cooked minced chicken slurry at 8° C. pH 6.42
  Total inhibition (effect on growth of target organism by 2000 ppm APP): S. Typhimurium
[3]; 1000 ppm
  Control for: 4 days
[3]; 2000 ppm, milk at 8° C.
  Control of growth: No control observed
[3]; 2000 ppm
  Control for: 6 days
[4]
  No inhibition (effect on growth of target organism by 2000 ppm APP): Br. thermosphacta
[5]
  APP level causing total inhibition: 2000 ppm
[6]; 500 ppm
  Effect on growth rate: Slight reduction of growth rate with 500 and 1000 ppm
[6]; 1000 ppm
  Effect on growth: No total inhibition by 1000 ppm
  Effect on growth rate: Slight reduction of growth rate with 500 and 1000 ppm
